This note sets out measurements from patent publication US11753407B2, “Compounds for treating spinal muscular atrophy” (PTC Therapeutics, Inc., priority 2012, dated 2023).

The subject of data set [1] is SMN2 minigene mRNA (SMN2-A minigene) in HEK293H cells. In words: SMN2 minigene mRNA splicing RT-qPCR assay in cultured cells. In kind it is cell-based, human. As to conditions: Homo sapiens, HEK293-H; concentration increasing full length SMN2 mRNA 1.5-fold relative to vehicle-treated cells; HEK293H cells with SMN2-A minigene, 24 hours, 7-point concentration data; read-out: EC1.5x for production of full length SMN2 mRNA. In a few lines: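 Read-out: minigene-specific full-length (exon 7-included) SMN2 mRNA by one-step multiplex RT-qPCR, normalized to GAPDH and divided by vehicle-treated level. Stable SMN2-A minigene HEK293H cells, 24 h compound exposure, 7 concentrations in duplicate. EC1.5× = concentration raising FL mRNA 1.5-fold.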
A general note: In qPCR the cycle at which signal appears reflects the starting amount.

The test system of data set [2] is Smn protein in SMA patient fibroblast cells (GM03813). Description: Smn protein assay in cultured cells (SMN HTRF). As to conditions: SMA patient fibroblast cells, 48 hours; for EC1.5x for Smn protein expression: 7-point concentration curve, SMN HTRF, concentration producing 1.5 times Smn protein vs DMSO vehicle control; for maximum fold (Fold) increase of Smn protein: 7-point concentration data, fold relative to vehicle control. It is filed as cell-based, human. In a few lines: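 Read-out: HTRF 665/620 nm ratio, blank-subtracted as ΔF, then expressed as fold over DMSO vehicle. Fibroblasts from SMA patients were exposed to compounds for 48 h (7 points, 3.16-fold steps, triplicates). Values are EC1.5× and maximum fold Smn increase.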
On the technique in general: Time-resolved FRET reads energy transfer from a long-lived donor to a nearby acceptor.

For orientation: melting point means the temperature, or range, at which the solid turns liquid.

Molecule `O=c1cc(-c2cc(F)cc(F)c2)nc2ccc(N3CCNCC3)cn12` [Compound 79, 2-(3,5-difluorophenyl)-7-(piperazin-1-yl)-4H-pyrido[1,2-a]pyrimidin-4-one] registered a melting point of 195 to 198 °C. Also, the EC (1.5-fold increase) in data set [1] lay in the range of 0.1 to 0.3 µM. Moreover, in data set [2], the “EC1.5x for Smn protein expression” value was “*** (an EC1.5× between >0.3 μM and ≤1 μM is indicated by three stars (***))”; the “maximum fold (Fold) increase of Smn protein” value (“maximum fold (Fold) increase” below) was “**** (a fold increase between >1.5 and ≤1.65 is indicated by four stars (****))”.
`COc1ccc(-c2cc(=O)n3cc(N4CCN[C@@H](C)C4)ccc3n2)c(OC)c1` [Compound 90, 2-(2,4-dimethoxyphenyl)-7-[(3S)-3-methylpiperazin-1-yl]-4H-pyrido[1,2-a]pyrimidin-4-one] returned a melting point of 172 to 177 °C. In addition, the EC (1.5-fold increase) in data set [1] was 1 to 3 µM. For the same molecule, in data set [2], the “EC1.5x for Smn protein expression” value was “* (An EC1.5× for Smn protein expression between >3 μM and ≤10 μM is indicated by one star (*))”; the “maximum fold (Fold) increase” value was “*** (a fold increase between >1.35 and ≤1.5 is indicated by three stars (***))”.
`Cc1cn2cc(-c3cc(=O)n4cc(N5CC[C@H](N(C)C)C5)ccc4n3)cc(F)c2n1` [Compound 275, 7-[(3S)-3-(dimethylamino)pyrrolidin-1-yl]-2-(8-fluoro-2-methylimidazo[1,2-a]pyridin-6-yl)-4H-pyrido[1,2-a]pyrimidin-4-one] came in with a melting point of 294 to 297 °C. The EC (1.5-fold increase) in data set [1] is less than 0.1 µM. Further, in data set [2], the “EC1.5x for Smn protein expression” value is given as “**** (an EC1.5x≤0.3 μM is indicated by four stars (****))” and the “maximum fold (Fold) increase” value was “***** (a fold increase >1.65 is indicated by five stars (*****))”.
`Cc1nc2ccc(-c3cc(=O)n4cc(N5CC[C@@H](N(C)C)C5)ccc4n3)cc2s1` [Compound 383, 7-[(3R)-3-(dimethylamino)pyrrolidin-1-yl]-2-(2-methyl-1,3-benzothiazol-6-yl)-4H-pyrido[1,2-a]pyrimidin-4-one] yielded a melting point of 235 to 240 °C. Besides, the EC (1.5-fold increase) in data set [1] was in the range of 0.3 to 1 µM. In addition, in data set [2], the “maximum fold (Fold) increase” value was “** (a fold increase between >1.2 and ≤1.35 is indicated by two stars (**))”.
In turn, `CCCc1nc(C)cn2nc(-c3cc(=O)n4cc(C5CCNCC5)ccc4n3)cc12` [Compound 766, 2-(6-methyl-4-propylpyrazolo[1,5-a]pyrazin-2-yl)-7-(piperidin-4-yl)-4H-pyrido[1,2-a]pyrimidin-4-one] returned a melting point of 228 to 230 °C. Moreover, in data set [1], the EC (1.5-fold increase) was less than 0.1 µM. For the same molecule, in data set [2], the “EC1.5x for Smn protein expression” value is given as “**** (an EC1.5x≤0.3 μM is indicated by four stars (****))” and the “maximum fold (Fold) increase” value was “***** (a fold increase >1.65 is indicated by five stars (*****))”.
Consider `Cc1cn2cc(-c3cc(=O)n4cc(N5CCN[C@@H](C)C5)ccc4n3)nc2c(C)n1` [Compound 119, 2-(6,8-dimethylimidazo[1,2-a]pyrazin-2-yl)-7-[(3S)-3-methylpiperazin-1-yl]-4H-pyrido[1,2-a]pyrimidin-4-one], for which the melting point was in the range of 202 to 208 °C. For the same molecule, the EC (1.5-fold increase) in data set [1] fell in the range of 0.1 to 0.3 µM. In data set [2], the “EC1.5x for Smn protein expression” value was “*** (an EC1.5× between >0.3 μM and ≤1 μM is indicated by three stars (***))”; the “maximum fold (Fold) increase” value is listed as “***** (a fold increase >1.65 is indicated by five stars (*****))”.
`COc1ccc(-c2cc(=O)n3cc(N4C[C@H]5CCCN(C)[C@H]5C4)ccc3n2)cc1F` [Compound 313, 2-(3-fluoro-4-methoxyphenyl)-7-[(4aR,7aR)-1-methyloctahydro-6H-pyrrolo[3,4-b]pyridin-6-yl]-4H-pyrido[1,2-a]pyrimidin-4-one]: the melting point lay in the range of 223 to 227 °C. Further, the EC (1.5-fold increase) in data set [1] fell in the range of 1 to 3 µM. Moreover, in data set [2], the “maximum fold (Fold) increase” value is given as “* (A maximum fold increase of ≤1.2 is indicated by one star (*))”.
In the case of `COc1ccc(-c2cc(=O)n3cc(N4CCN[C@@H](C)C4)ccc3n2)cc1OC(F)F` [Compound 101, 2-[3-(difluoromethoxy)-4-methoxyphenyl]-7-[(3S)-3-methylpiperazin-1-yl]-4H-pyrido[1,2-a]pyrimidin-4-one], the melting point was 167 to 169 °C. The EC (1.5-fold increase) in data set [1] was in the range of 0.3 to 1 µM. In addition, the “maximum fold (Fold) increase” value in data set [2] was “*** (a fold increase between >1.35 and ≤1.5 is indicated by three stars (***))”.
As for `COc1ccc(-c2ccc3nc(N4CCNCC4)cc(=O)n3c2)cc1F` [Cpd 220, 7-(3-fluoro-4-methoxyphenyl)-2-(piperazin-1-yl)-4H-pyrido[1,2-a]pyrimidin-4-one], the melting point lay in the range of 202 to 206 °C. Moreover, the EC (1.5-fold increase) in data set [1] is 0.3 to 1 µM. The “maximum fold (Fold) increase” value in data set [2] is “** (a fold increase between >1.2 and ≤1.35 is indicated by two stars (**))”.
The molecule `Cc1nc2ccc(-c3cc(=O)n4nc(C5CCN(CCO)CC5)ccc4n3)cc2o1` [Compound 598, 7-[1-(2-hydroxyethyl)piperidin-4-yl]-2-(2-methyl-1,3-benzoxazol-6-yl)-4H-pyrimido[1,2-b]pyridazin-4-one] had a melting point of 205 to 207 °C. Also, the EC (1.5-fold increase) in data set [1] lay within 0.1 to 0.3 µM. For the same molecule, in data set [2], the “EC1.5x for Smn protein expression” value was “*** (an EC1.5× between >0.3 μM and ≤1 μM is indicated by three stars (***))”; the “maximum fold (Fold) increase” value was “***** (a fold increase >1.65 is indicated by five stars (*****))”.
With `CCOc1cc(-c2cc(=O)n3cc(N4CCNCC4)ccc3n2)ccc1OC` [Compound 112, 2-(3-ethoxy-4-methoxyphenyl)-7-(piperazin-1-yl)-4H-pyrido[1,2-a]pyrimidin-4-one], the melting point fell in the range of 194 to 196 °C. The EC (1.5-fold increase) in data set [1] is 0.3 to 1 µM. The “maximum fold (Fold) increase” value in data set [2] is “*** (a fold increase between >1.35 and ≤1.5 is indicated by three stars (***))”.
`Cc1cn2cc(-c3cc(=O)n4cc(C5CCNCC5)ccc4n3)cc(C)c2n1` [Compound 607, 2-(2,8-dimethylimidazo[1,2-a]pyridin-6-yl)-7-(piperidin-4-yl)-4H-pyrido[1,2-a]pyrimidin-4-one] gave a melting point of 282 to 284 °C. Moreover, the EC (1.5-fold increase) in data set [1] is less than 0.1 µM. In data set [2], the “EC1.5x for Smn protein expression” value is given as “**** (an EC1.5x≤0.3 μM is indicated by four stars (****))” and the “maximum fold (Fold) increase” value is reported as “***** (a fold increase >1.65 is indicated by five stars (*****))”.
`C[C@H]1CN(c2ccc3nc(-c4ccc(N(C)C)cc4)cc(=O)n3c2)CCN1` [Compound 54, 2-[4-(dimethylamino)phenyl]-7-[(3S)-3-methylpiperazin-1-yl]-4H-pyrido[1,2-a]pyrimidin-4-one] yielded a melting point of 199 to 202 °C. Moreover, the EC (1.5-fold increase) in data set [1] lay within 1 to 3 µM. Besides, in data set [2], the “maximum fold (Fold) increase” value is given as “* (A maximum fold increase of ≤1.2 is indicated by one star (*))”.
With `Cc1cn2nc(-c3cc(=O)n4cc(C5CCN(C)CC5)ccc4n3)cc2c(C)n1` [Compound 453, 2-(4,6-dimethylpyrazolo[1,5-a]pyrazin-2-yl)-7-(1-methylpiperidin-4-yl)-4H-pyrido[1,2-a]pyrimidin-4-one], the melting point was 220 to 222 °C. For the same molecule, the EC (1.5-fold increase) in data set [1] is less than 0.1 µM. Further, in data set [2], the “EC1.5x for Smn protein expression” value was “**** (an EC1.5x≤0.3 μM is indicated by four stars (****))” and the “maximum fold (Fold) increase” value is given as “***** (a fold increase >1.65 is indicated by five stars (*****))”.
